For data set [1] the following is noted: cited from earlier work; for incidence of QT prolongation: patients, Aloxi at doses above 2.25 mg, sotalol 1288 patients, vandetanib grade 3/4.
For another data set, the system named is calcium channel. The following applies: literature; read-out: calcium channel blocking EC50; cited from earlier work.
The test system of data set [2] is in vitro rabbit heart. Nature of the data set: In vitro rabbit heart QTc intervals. The arrangement: dose or concentration left out as unconfirmed. The following applies: liposomes 9:1.
For data set [3] the following is noted: cited from earlier work; for Cmax: read-out: steady state Cmax.
A further data set relates to CaV. The following applies: literature; read-out: CaV IC50 (Doherty et al); cited from earlier work.
Data set [4] deals with rabbit heart.
The next data set has as its target NaV1.5 (Homo sapiens, UniProt Q14524). The following applies: literature; read-out: NaV1.5 IC50 (Doherty et al); cited from earlier work.
The conditions of data set [5]: crizotinib intravenously; nilotinib orally up to 600 mg/kg; cited from earlier work.
A further data set concerns in vitro rabbit hearts. Nature of the data set: Left ventricular pressure in in vitro rabbit hearts.
The next data set deals with IKs (Homo sapiens, UniProt P51787). The following applies: literature; cited from earlier work.
IKs, sequence (P51787 whole entry): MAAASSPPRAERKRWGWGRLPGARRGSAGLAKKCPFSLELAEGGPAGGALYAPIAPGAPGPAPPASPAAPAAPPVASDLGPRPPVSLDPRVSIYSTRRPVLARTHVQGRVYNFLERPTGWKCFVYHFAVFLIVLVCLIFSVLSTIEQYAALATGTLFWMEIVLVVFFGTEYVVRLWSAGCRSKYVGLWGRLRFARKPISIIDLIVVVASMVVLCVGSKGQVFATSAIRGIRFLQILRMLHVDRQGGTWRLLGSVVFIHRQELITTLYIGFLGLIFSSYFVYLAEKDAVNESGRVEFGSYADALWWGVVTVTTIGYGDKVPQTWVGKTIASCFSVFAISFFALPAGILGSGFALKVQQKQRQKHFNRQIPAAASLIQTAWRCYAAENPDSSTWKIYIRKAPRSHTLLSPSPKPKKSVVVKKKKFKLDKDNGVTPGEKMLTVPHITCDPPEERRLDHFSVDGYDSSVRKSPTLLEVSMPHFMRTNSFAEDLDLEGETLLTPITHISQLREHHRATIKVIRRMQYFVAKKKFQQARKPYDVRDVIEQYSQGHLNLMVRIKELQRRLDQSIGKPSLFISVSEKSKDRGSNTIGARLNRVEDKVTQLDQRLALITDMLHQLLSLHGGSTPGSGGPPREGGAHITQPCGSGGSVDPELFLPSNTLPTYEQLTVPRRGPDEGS
For data set [6] the following is noted: cited from earlier work.
The target in another data set is hERG (Homo sapiens, UniProt Q12809). The following applies: cited from earlier work.
hERG, sequence (Q12809 whole entry): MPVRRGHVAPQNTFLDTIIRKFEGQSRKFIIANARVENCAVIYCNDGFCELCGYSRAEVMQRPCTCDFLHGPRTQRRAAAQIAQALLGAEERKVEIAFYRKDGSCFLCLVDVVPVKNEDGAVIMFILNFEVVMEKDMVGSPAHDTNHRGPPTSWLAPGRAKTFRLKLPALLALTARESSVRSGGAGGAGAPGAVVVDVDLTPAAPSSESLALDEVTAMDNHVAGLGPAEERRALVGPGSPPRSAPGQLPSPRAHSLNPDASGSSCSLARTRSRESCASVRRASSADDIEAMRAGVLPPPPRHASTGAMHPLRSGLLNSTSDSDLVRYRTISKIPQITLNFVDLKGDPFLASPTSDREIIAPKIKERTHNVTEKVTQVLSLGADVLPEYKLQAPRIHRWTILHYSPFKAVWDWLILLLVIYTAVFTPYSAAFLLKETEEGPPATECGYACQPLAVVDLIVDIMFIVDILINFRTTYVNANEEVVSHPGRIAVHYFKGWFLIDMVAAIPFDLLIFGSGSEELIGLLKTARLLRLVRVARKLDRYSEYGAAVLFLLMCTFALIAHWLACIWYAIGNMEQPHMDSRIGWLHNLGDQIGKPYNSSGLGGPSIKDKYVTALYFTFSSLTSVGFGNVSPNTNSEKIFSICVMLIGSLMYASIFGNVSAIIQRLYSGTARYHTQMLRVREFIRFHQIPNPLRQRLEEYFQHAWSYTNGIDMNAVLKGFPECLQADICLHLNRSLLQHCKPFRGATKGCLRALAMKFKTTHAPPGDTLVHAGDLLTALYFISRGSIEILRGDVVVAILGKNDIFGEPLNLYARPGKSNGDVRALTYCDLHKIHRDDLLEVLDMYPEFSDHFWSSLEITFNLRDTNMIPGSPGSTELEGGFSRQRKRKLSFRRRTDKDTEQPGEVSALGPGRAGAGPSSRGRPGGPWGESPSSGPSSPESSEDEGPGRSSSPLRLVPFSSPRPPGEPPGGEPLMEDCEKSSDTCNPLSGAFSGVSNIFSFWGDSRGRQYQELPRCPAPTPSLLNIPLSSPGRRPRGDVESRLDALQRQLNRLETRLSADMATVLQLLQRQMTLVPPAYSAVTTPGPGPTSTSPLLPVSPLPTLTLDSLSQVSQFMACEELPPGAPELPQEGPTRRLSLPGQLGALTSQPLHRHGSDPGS
The test system of data set [7] is isolated rabbit Purkinje fibers. The following applies: 5 μM; cited from earlier work.
In data set [8] the test system is in vitro rabbit heart.
The test system of data set [9] is rabbit heart. This is another data set of the same source.
The conditions of data set [10]: cited from earlier work. This is another data set of the same source.
Setting [11] is: cancer patients given 500 mg BID.
Setting [12] is: children with cancer, 280 mg/m^2 BID.
Setting [13] is: crizotinib 2 mg/kg, vs baseline.
Where [14] appears, read: crizotinib 3 mg/kg, vs baseline.
[15] abbreviates: read-out: hERG IC50, literature.
Where [16] appears, read: Chinese patients given 400 mg BID.
Where [17] appears, read: cancer patients given 400 mg BID.

Where a name gives a salt, the structure may show the parent alone. Read-outs that look alike come from different tables or passages of the source. Marks after values point to notes of the source that are not given here.

NaV1.5, sequence (Q14524 whole entry): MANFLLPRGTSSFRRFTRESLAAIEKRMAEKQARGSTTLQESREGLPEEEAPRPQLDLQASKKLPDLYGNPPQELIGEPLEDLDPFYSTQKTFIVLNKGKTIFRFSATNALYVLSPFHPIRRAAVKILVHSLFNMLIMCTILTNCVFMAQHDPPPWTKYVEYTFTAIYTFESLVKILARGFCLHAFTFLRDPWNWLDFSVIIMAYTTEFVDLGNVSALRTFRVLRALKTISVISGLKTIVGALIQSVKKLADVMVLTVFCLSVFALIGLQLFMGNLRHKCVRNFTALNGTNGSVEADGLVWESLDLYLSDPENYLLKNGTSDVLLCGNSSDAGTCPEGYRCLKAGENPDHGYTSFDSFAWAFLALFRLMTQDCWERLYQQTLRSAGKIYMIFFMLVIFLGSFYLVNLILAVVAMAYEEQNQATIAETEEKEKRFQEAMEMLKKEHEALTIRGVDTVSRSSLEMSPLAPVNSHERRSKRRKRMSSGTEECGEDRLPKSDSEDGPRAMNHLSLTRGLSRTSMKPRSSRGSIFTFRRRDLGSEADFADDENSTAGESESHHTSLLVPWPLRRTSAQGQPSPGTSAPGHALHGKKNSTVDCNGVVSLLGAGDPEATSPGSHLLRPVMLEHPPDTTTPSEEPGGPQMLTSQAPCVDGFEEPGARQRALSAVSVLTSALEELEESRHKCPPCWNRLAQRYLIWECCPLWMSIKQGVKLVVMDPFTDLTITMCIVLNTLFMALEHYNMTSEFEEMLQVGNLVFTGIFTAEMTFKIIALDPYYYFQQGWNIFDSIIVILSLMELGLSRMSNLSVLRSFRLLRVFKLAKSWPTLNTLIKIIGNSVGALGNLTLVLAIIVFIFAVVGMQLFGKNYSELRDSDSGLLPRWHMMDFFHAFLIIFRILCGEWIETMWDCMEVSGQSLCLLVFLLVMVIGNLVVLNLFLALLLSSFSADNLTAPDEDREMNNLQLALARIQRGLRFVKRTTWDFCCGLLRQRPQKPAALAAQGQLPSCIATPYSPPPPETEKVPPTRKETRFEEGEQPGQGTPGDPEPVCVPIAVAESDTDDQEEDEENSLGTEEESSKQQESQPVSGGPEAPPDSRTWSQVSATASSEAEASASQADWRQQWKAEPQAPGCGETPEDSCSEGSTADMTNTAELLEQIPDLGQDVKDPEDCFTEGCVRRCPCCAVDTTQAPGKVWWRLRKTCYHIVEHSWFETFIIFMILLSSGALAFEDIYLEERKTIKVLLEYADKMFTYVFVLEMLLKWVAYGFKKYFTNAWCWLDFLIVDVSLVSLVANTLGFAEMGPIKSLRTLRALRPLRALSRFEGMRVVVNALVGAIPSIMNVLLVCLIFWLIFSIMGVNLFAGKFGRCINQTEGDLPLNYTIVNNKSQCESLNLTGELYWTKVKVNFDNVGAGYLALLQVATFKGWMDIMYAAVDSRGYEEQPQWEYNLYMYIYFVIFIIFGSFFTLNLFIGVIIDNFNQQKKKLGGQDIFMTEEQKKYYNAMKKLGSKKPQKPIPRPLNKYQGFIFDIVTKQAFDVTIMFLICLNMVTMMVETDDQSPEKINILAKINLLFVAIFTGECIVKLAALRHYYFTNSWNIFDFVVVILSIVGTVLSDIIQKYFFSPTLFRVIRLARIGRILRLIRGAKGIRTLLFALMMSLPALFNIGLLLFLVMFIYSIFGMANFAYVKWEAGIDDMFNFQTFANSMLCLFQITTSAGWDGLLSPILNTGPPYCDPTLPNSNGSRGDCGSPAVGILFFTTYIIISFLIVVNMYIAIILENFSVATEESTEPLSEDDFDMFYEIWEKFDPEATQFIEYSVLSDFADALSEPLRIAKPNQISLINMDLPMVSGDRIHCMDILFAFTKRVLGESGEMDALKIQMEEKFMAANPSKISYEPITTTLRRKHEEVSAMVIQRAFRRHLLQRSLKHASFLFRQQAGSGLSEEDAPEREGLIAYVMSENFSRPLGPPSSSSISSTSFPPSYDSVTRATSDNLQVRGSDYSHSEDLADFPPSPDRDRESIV

For the molecule `O=C1c2cccc3c2[C@H](CCC3)CN1[C@@H]1CN2CCC1CC2` [Aloxi, palonasitron HCL], in [1] (doses above 2.25 mg), the “incidence of EKG adverse events” value is recorded as > 2% and the incidence of bradycardia is listed as 4%. Further, in [1], the “incidence of QT prolongation” value is recorded as 5%.

For the molecule `CC(C)COCC(CN(Cc1ccccc1)c1ccccc1)N1CCCC1` (centres unmarked) [Bepridil], the EC50 in the data set on calcium channel is 10 µM.

For `C[C@@H](Oc1cc(-c2cnn(C3CCNCC3)c2)cnc1N)c1c(Cl)ccc(F)c1Cl` [Crizotinib], the “effect on the QTc interval of in vitro rabbit hearts (in words)” value in the data set on in vitro rabbit heart [2] is given as “dose dependent prolongation of the QTc interval”. Besides, in data set [3] (setting [11]), the “steady state Cmax” value is 650 ng/mL and the Cmax was 1500 nM. Moreover, in data set [3] (setting [12]), the “steady state Cmax” value is 630 ng/mL and the Cmax is 1400 nM. The IC50 in the data set with CaV is 3.1 µM. Further, in the data set on rabbit heart [4] (crizotinib 1 mg/kg IV), the “QRS Intervals” value is listed as 48 ms, the “QT Intervals” value is given as 189* ms and the “QTc interval (Van der Water)” value is on record as 251* ms. Also, in the data set with rabbit heart [4] (crizotinib 2 mg/kg IV), the “QRS Intervals” value is given as 53* ms, the “QT Intervals” value is 205* ms, the “QTc interval (Van der Water)” value was 264* ms and the “RR Intervals” value is 324* ms. In the data set on rabbit heart [4] (setting [13]), this molecule returned a QT interval prolongation of 34 ms and an RR interval prolongation of 67 ms. In addition, in the data set with rabbit heart [4] (crizotinib 3 mg/kg IV), the “QRS Intervals” value is on record as 56* ms, the “QT Intervals” value was 218* ms, the “QTc interval (Van der Water)” value is 273* ms and the “RR Intervals” value is reported as 367* ms. Besides, in the data set on rabbit heart [4] (setting [14]), the PR interval prolongation was 23 ms, the QRS interval prolongation is given as 13 ms, the QT interval prolongation came out at 48 ms and the “QTc interval prolongation (Van der Water)” value is given as 38 ms. The same molecule came in with an RR interval prolongation with rabbit heart [4] (setting [14]) of 110 ms. The “RR Intervals” value with rabbit heart [4] (crizotinib loading dose 1 mg/kg IV) was 294* ms. In addition, the IC50 on NaV1.5 was 3.5 µM. In addition, the “ECG effect in dogs (in words)” value in data set [5] is “increased PR-, QRS- and QT-intervals”. Moreover, in the data set with in vitro rabbit hearts, the “effect on LVP (in words)” value was “decrease in LVP”.

As to `COc1cccc2c1C(=O)c1c(O)c3c(c(O)c1C2=O)C[C@@](O)(C(=O)CO)C[C@@H]3O[C@H]1C[C@H](N)[C@H](O)[C@H](C)O1` [Doxorubicin], the IC50 on IKs was 4.78 µM. Also, the QTc prolongation in data set [6] (30 uM) is reported as 13%.

In the case of `CCCCc1oc2ccc(NS(C)(=O)=O)cc2c1C(=O)c1ccc(OCCCN(CCCC)CCCC)cc1` [Dronedarone], the IC50 was 0.07 µM on hERG (setting [15]) and 0.059 µM on hERG (read-out: hERG IC50, wild type hERG tails at −40 mV following activation at +30 mV).

In the case of `O=C(CCCN1CCC(O)(c2ccc(Cl)cc2)CC1)c1ccc(F)cc1` [Haloperidol], the “hERG blocker potency (in words)” value at hERG is “high potency hERG blocker”.

Turning to `CS(=O)(=O)CCNCc1ccc(-c2ccc3ncnc(Nc4ccc(OCc5cccc(F)c5)c(Cl)c4)c3c2)o1` [Lapatinib], the “action potential duration (in words)” value in data set [7] is “prolong action potential duration”.

Regarding `CCC(=O)C(CC(C)N(C)C)(c1ccccc1)c1ccccc1` (centres unmarked) [Methadone], the 50% inhibitory concentration (IC50) at hERG (setting [15]) was 4.8 µM.

Take `COc1c(N2C[C@@H]3CCCN[C@@H]3C2)c(F)cc2c(=O)c(C(=O)O)cn(C3CC3)c12` [Moxifloxacin]: the QTc prolongation in data set [6] (100 uM) was 22%.

As for `Cc1cn(-c2cc(NC(=O)c3ccc(C)c(Nc4nccc(-c5cccnc5)n4)c3)cc(C(F)(F)F)c2)cn1` [Nilotinib], in data set [3] (setting [16]), the “steady state Cmax” value is 2161 ng/mL and the Cmax was 4100 nM. Further, in data set [3] (setting [17]), the “steady state Cmax” value is recorded as 1754 ng/mL and the Cmax was 3300 nM. Moreover, the “effect on the QTc interval of in vitro rabbit hearts (in words)” value with in vitro rabbit heart [8] is recorded as “dose dependent prolongation of the QTc interval”. For the same molecule, in the data set on CaV, the IC50 was > 3 µM. In the data set on rabbit heart [9] (nilotinib 2 mg/kg IV), the “PR Intervals” value was 78 ms, the “QRS Intervals” value is 44* ms, the “QT Intervals” value is on record as 182* ms and the “QTc Intervals (Van der Water)” value is recorded as 245* ms. Besides, in the data set on rabbit heart [9] (nilotinib 4 mg/kg IV), the “PR Intervals” value is 80 ms, the “QRS Intervals” value is reported as 46* ms, the “QT Intervals” value is on record as 201* ms and the “QTc Intervals (Van der Water)” value is given as 262* ms. Further, in the data set with rabbit heart [9] (nilotinib 4 mg/kg IV), the “RR Intervals” value came out at 307 ms. Moreover, in the data set with rabbit heart [9] (nilotinib 4 mg/kg, vs baseline), the QRS interval prolongation worked out at 6 ms, the QT interval prolongation turned out to be 41 ms and the QTc interval prolongation is 36 ms. The “RR Intervals” value with rabbit heart [9] (nilotinib loading dose 2 mg/kg IV) was determined as 273 ms.

For `[K+]` [Potassium], the “reduction of the QTc interval” value in [10] (plasma concentration raised by 1.5 mEq/L above baseline) is reported as 24%.

Regarding `COc1ccc(CN(CCN(C)C)c2ccccn2)cc1` [Pyrilamine], at hERG, the “hERG blocker potency (in words)” value was “low potency hERG blocker”.

As to `CC(C)NCC(O)c1ccc(NS(C)(=O)=O)cc1` (centres unmarked) [Sotalol], the “incidence of QT prolongation” value in data set [1] is recorded as 2%.

In the case of `COc1cc2c(Nc3ccc(Br)cc3F)ncnc2cc1OCC1CCN(C)CC1` [Vandetanib], in [1], the “incidence of QT prolongation” value is > 5%.

For the molecule `CC(=O)Oc1ccc2c3c1O[C@H]1[C@@H](OC(C)=O)C=C[C@H]4[C@@H](C2)N(C)CC[C@@]341` [heroin], the concentration for half-maximal inhibition (IC50) on hERG is 427 µM.

Turning to `CC(C)NCC(O)COc1cccc2ccccc12` (centres unmarked) [propranolol], in [10] (LQT1), the “decrease of risk of cardiac events” value is recorded as 81% and the “subjects still developing cardiac events on adequate treatment” value is listed as 10%. The “subjects still developing cardiac events” value in [10] (LQT2) is recorded as 23%. The “decrease of cardiac event risk” value in data set [10] (LQT2 subjects) is given as 59%. Also, the “subjects developing cardiac events on adequate treatment” value in data set [10] (LQT3) is on record as 32%.

As to Arsenic trioxide, the “hERG blocker potency (in words)” value on hERG (literature) is on record as “ineffective hERG blocker”. In addition, the IC50 at hERG (setting [15]) is > 300 µM.

Source of the values: patent US12004868B2, “Liposomal mitigation of drug-induced inhibition of the cardiac IKr channel” (Signpath Pharma, Inc., priority 2011, dated 2024).
